From publication PMC7845643, “Predictive Rules of Efflux Inhibition and Avoidance in Pseudomonas aeruginosa” (mBio, 2021)
≈ marks a conversion by molar mass, not a printed value.

Experiments:
[1] = test system: T1, Pseudomonas aeruginosa PAO1; assay: microbe, parasite or virus in culture; set-up: 2-fold serial broth dilution MIC (at least 90% growth inhibition); conditions: PAO1, read-out: MICs (mg/L) in strains: / PAO1
T1 construct: PAO1 (attTn7::mini-Tn7T-Gm-lacIq-pLAC-MCS)
Procedure: (§1) Antibacterial activities were tested using a 2-fold serial dilution broth assay as described previously ([13]). The antibacterial activities are expressed as MIC (defined as at least 90% of growth inhibition) and IC50. To follow the fate of compounds in cells and to identify descriptors associated with different permeation barriers, we first separated the contributions of the OM barrier and active efflux in measured activities of compounds. For this purpose, the bacterial growth-inhibitory activities for all Rempex compounds were analyzed in four P. aeruginosa strains: the wild-type strain, PAO1; the PΔ6 strain, lacking six efflux pumps (ΔmexAB-oprM, ΔmexCD-oprJ, ΔmexXY, ΔmexJKL, ΔmexEF-oprN, and ΔtriABC); and their hyperporinated derivatives, PAO1-Pore and PΔ6-Pore, respectively ([39]). These strains were previously shown to differ dramatically in their susceptibilities to various classes of antibiotics because of differences in efflux proficiency and permeation across the OM ([13], [15]). To normalize to the differences in target inhibition potency among compounds, our key measured parameters were efflux ratios and OM barrier ratios, defined as the 50% inhibitory concentration for the parent/mutant (IC50 parent/IC50 mutant), for efflux mutants and hyperporinated mutants, respectively (see Table S1 in the supplemental material). More specifically, the IC50 ratios for PAO1/PAO1-Pore and PΔ6/PΔ6-Pore define the contribution of the OM barrier to the activities of compounds in the presence and absence of efflux, respectively. […] Activities of only a few compounds were slightly affected by the OM. Among them are compounds 58 and 46 (Fig. 1A), whose activity is enhanced by hyperporination of efflux-deficient PΔ6-Pore cells by 16- and 8-fold, respectively.

[2] = test system: T2, Pseudomonas aeruginosa PAO1-Pore; assay: microbe, parasite or virus in culture; set-up: 2-fold serial broth dilution MIC (at least 90% growth inhibition); conditions: PAO1, read-out: MICs (mg/L) in strains: / PAO1-Pore
T2 construct: PAO1-Pore (hyperporinated, attTn7::mini-Tn7T-Gmr-lacIq-pLAC-fhuADCΔ4L)
Procedure: as §1

[3] = test system: T3, Pseudomonas aeruginosa PΔ6-Pore; assay: microbe, parasite or virus in culture; set-up: 2-fold serial broth dilution MIC (at least 90% growth inhibition); conditions: read-out: MICs (mg/L) in strains: / D6-Pore
T3 construct: PΔ6-Pore (six efflux pumps deleted, hyperporinated with fhuADCΔ4L)
Procedure: as §1

[4] = test system: T4, Pseudomonas aeruginosa PΔ6; assay: microbe, parasite or virus in culture; set-up: 2-fold serial broth dilution MIC (at least 90% growth inhibition); conditions: read-out: MICs (mg/L) in strains: / D6
T4 construct: PΔ6 (PAO1 ΔmexAB-oprM ΔmexCD-oprJ ΔmexXY ΔmexJKL ΔmexEF-oprN ΔtriABC, efflux-deficient)
Procedure: as §1

MexB = target: T5, MexB (Pseudomonas aeruginosa, UniProt P52002); assay: SPR (Biacore T200, CM5 chip, immobilized MexB, kinetic fit); format: binding
T5 construct: purified MexB immobilized by amine coupling
T5 sequence (P52002 whole entry): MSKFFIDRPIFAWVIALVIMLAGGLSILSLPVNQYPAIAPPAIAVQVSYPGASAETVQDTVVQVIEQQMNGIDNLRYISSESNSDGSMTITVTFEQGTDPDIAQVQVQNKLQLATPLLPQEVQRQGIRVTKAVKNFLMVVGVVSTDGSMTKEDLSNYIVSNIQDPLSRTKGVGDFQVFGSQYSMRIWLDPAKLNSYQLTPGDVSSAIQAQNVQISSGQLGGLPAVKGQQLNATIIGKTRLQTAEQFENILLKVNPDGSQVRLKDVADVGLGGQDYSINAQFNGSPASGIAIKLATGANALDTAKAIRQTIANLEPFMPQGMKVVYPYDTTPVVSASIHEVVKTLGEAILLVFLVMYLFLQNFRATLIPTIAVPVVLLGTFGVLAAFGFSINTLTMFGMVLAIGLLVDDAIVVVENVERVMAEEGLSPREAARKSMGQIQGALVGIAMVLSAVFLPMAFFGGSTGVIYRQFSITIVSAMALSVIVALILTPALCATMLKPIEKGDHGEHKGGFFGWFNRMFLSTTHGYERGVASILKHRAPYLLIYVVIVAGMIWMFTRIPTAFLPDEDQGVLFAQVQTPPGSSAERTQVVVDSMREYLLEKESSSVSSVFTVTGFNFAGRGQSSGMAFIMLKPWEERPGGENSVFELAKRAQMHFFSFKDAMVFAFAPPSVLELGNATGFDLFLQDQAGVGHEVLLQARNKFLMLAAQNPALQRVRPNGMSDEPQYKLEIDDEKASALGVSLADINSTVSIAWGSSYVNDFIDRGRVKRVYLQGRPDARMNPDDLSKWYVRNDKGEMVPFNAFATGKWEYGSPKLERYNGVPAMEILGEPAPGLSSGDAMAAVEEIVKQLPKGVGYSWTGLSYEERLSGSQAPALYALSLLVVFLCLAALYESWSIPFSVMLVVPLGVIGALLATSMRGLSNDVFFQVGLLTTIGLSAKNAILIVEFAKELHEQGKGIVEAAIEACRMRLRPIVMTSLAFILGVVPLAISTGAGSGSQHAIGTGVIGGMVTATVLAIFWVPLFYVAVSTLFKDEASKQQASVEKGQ

CCN1CCN(C(=O)N[C@@H](C(=O)N[C@@H]2C(=O)N3C(C(=O)O)=C(CSc4nnnn4C)CS[C@H]23)c2ccc(O)cc2)C(=O)C1=O [OU-634, cefoperazone]
MIC [1]: 3.9 mg/L (≈ 6.04 µM) | MIC [2]: 0.97 mg/L (≈ 1.5 µM) | MIC [3]: 0.97 mg/L (≈ 1.5 µM)

CO/N=C(\C(=O)N[C@@H]1C(=O)N2C(C(=O)O)=C(CSc3nc(=O)c(O)nn3C)CS[C@H]12)c1csc(N)n1 [OU-640, ceftriaxone]
MIC [1]: 15.6 mg/L (≈ 28.1 µM) | MIC [4]: 3.9 mg/L (≈ 7.03 µM) | MIC [2]: 0.97 mg/L (≈ 1.75 µM) | MIC [3]: 0.06 mg/L (≈ 0.108 µM)

CO[C@@]1(NC(=O)C2SC(=C(C(N)=O)C(=O)O)S2)C(=O)N2C(C(=O)O)=C(CSc3nnnn3C)CS[C@@H]21 (stereo partly drawn) [OU-654, cefotetan]
MIC [1]: > 400 mg/L | MIC [4]: 100 mg/L (≈ 174 µM) | MIC [2]: 200 mg/L (≈ 347 µM) | MIC [3]: 12.5 mg/L (≈ 21.7 µM)

O=C(O)C1=C(CSc2nnnn2CS(=O)(=O)O)CS[C@@H]2[C@H](NC(=O)[C@H](O)c3ccccc3)C(=O)N12 [OU-666, cefonicid]
MIC [1]: 62.5 mg/L (≈ 115 µM) | MIC [2]: 3.9 mg/L (≈ 7.19 µM) | MIC [3]: 3.9 mg/L (≈ 7.19 µM)

Nc1nc(/C(=C/CC(=O)O)C(=O)N[C@@H]2C(=O)N3C(C(=O)O)=CCS[C@H]23)cs1 [OU-668, ceftibuten]
MIC [1]: > 2000 mg/L | MIC [4]: 1000 mg/L (≈ 2440 µM) | MIC [2]: 2000 mg/L (≈ 4870 µM) | MIC [3]: 128 mg/L (≈ 312 µM)

CO[C@@]1(NC(=O)C(C(=O)O)c2ccc(O)cc2)C(=O)N2C(C(=O)O)=C(CSc3nnnn3C)CO[C@@H]21 (stereo partly drawn) [OU-672, moxalactam]
MIC [1]: 62.5 mg/L (≈ 120 µM) | MIC [4]: 62.5 mg/L (≈ 120 µM) | MIC [2]: 15.6 mg/L (≈ 30 µM) | MIC [3]: 0.97 mg/L (≈ 1.86 µM)

Cc1cc(O)c(C(=O)N[C@@H](C(=O)N[C@@H]2C(=O)N3C(C(=O)O)=C(CSc4nnnn4C)CS[C@H]23)c2ccc(O)cc2)cn1 [OU-031452, cefpiramide]
MIC [1]: > 1000 mg/L | MIC [4]: > 1000 mg/L | MIC [2]: > 1000 mg/L | MIC [3]: 250 mg/L (≈ 408 µM)

C[N+](CCN)(CCN)CCC[C@H](N)C(=O)N[C@H](CCc1ccc(C(F)(F)F)cc1)C(=O)Nc1cnc2ccccc2c1 [compound 17]
Kd (MexB): 24.2 µM
